Reference: patent US20260174858A1, “TARGETING THE m6A MRNA DEMETHYLASE FTO” (University of Virginia Patent Foundation, priority 2022, published 2026)
d = 2'-deoxy (DNA); r = 2'-OH (RNA); {P} = phosphate

System: mouse BMDMs
Test: VEGFA release in mouse BMDMs (ELISA)
Type: cell-based
Settings: ELISA
Method: Primary WT or mutant mouse bone marrow derived macrophages (BMDMs) were isolated as previously described (4). BMDMs were cultured in IMDM (Gibco) basal medium containing 10% fetal bovine serum (FBS), 30% L929 supernatants, nonessential amino acids, sodium pyruvate, 2-mercaptoethanol, and antibiotics. THP-1 cells were cultured in RPMI 1640 medium with 10% FBS and antibiotics. Human RPE cells were isolated as previously described and cultured in DMEM medium with 10% FBS and antibiotics. All cells were maintained at 37° C. in a 5% CO2 environment.
The RPE-choroid complex was isolated from mouse eyes on day 3 after laser injury and treatment with FTO inhibitor or vehicle. Eye tissues were lysed by sonication with immunoprecipitation assay (RIPA) buffer (Sigma-Aldrich, R0278, USA) containing protease inhibitor (Sigma-Aldrich, 11836170001, USA), on ice for 15 minutes. The lysate was centrifuged at 20,000×g for 15 minutes at 4° C., and total protein in the lysates was quantified using the Thermo Scientific™ Pierce™ BCA™ Protein Assay (Fisher Scientific, PI23225, USA). VEGFA protein levels in the supernatants were measured by VEGF DuoSet ELISA (R&D Systems, DY493, USA), following the manufacturer's instructions. Mouse BMDMs or human THP-1 cells (5×10^5 cells per well) were plated into six-well plates in complete medium and allowed to adhere overnight. Cells were then incubated for 24 hours in the absence or presence of various doses of FTO inhibitor or METTL3 inhibitors (STM2457, Selleck Chemicals). […] The siRNAs (siFto: 5′-P.G.A.G.G.A.U.C.C.A.A.G.G.C.A.A.A.G.A.U.dT.dT 3′ (SEQ ID NO: 38); siCtrl: 5′-P.U.A.A.G.G.C.U.A.U.G.A.A.G.A.G.A.U.dT.dT 3′; SEQ ID NO: 39), were designed and synthesized by GE Healthcare Dharmacon, were transfected twice with BMDMs by using DharmaFECT 4 Transfection Reagent (Dharmacon, T-2004, USA). VEGFA levels in the supernatants were measured by mouse or human VEGF DuoSet ELISA (R&D Systems, DY493 or DY293B, USA), following the manufacturer's instructions.

Substance | VEGFA release with METTL3 inhibitor (various doses, 24 hours) | VEGFA release after Fto knockdown (BMDMs transfected with siRNA targeting Fto vs control)
STM2457 | dose-dependent increase in VEGFA release | –
siFto: siFto: 5′-P.G.A.G.G.A.U.C.C.A.A.G.G.C.A.A.A.G.A.U.dT.dT 3′ (SEQ ID NO: 38), Dharmacon (sense GAGGAUCCAAGGCAAAGAUTT; sugars from the 5' end r19 d2, 5' {P}, backbone not given here) | – | significantly dampened macrophage mediated VEGFA release
